The text below walks through data of patent US12466817B2, “Pyridine derivative and application thereof” (Nicoya Therapeutics (Shanghai) Co., Ltd, priority 2020, dated 2025).

pIC50: −log10 of the molar value.

For one data set, the target named is T1, CYP3A4 (Homo sapiens, UniProt P08684).
T1 construct: from tissue; host or cells: human liver microsomes
The experiment in a line: Inhibition of human liver microsomal CYP3A4 activity. Particulars: human liver microsomes, conclusion. It counts as in vitro ADME. On the procedure:
A total of five specific probe substrates for the five isozymes of CYP, phenacetin (CYP1A2), diclofenac (CYP2C9), (S′)-mephenytoin (CYP2C19), dextromethorphan ([…]), and midazolam (CYP3A4), were incubated respectively with human liver microsomes and the test compounds, and the reaction was initiated by the addition of reduced nicotinamide adenine dinucleotide phosphate (NADPH), and the samples were treated and the concentrations of the five metabolites produced by the specific substrates, acetaminophen, 4′-hydroxydiclofenac, 4′-hydroxymephenytoin, dextrorphan and 1′-hydroxymidazolam were measured by liquid chromatography tandem mass spectrometry (LC-MS/MS) after the end of the reaction, and the corresponding half maximal inhibitory concentrations (IC50) were calculated.

The next data set deals with T2, CCR2 (Homo sapiens, UniProt P41597).
T2 construct: expressed in transfected cells; host or cells: HEK293, clone C7, passage P6
Briefly: CCR2 FLIPR Calcium assay (intracellular calcium signaling). It counts as cell-based. Particulars: HEK293 host cells, clone C7; agonist MCP-1; Fluo-4 calcium signal. On the procedure: (§1) The inhibitory effects of the compounds on CCR2 and CCR5 receptors were evaluated by detecting intracellular calcium signaling changes by FLIPR Calcium assay, using the IC50 values of the compounds as indicators.
(§2) 1. Cell lines: The cells were seeded and incubated overnight at 37° C. in a 5% CO2 incubator CCR2/CCR5 density: 1 M (20 k/well)
(§3) 2. Reagent: Fluo-4 Direct, (Invitrogen, Cat #F10471)
(§4) The compound was prepared by dissolving in DMSO to a 10 mM solution, and the compound solution was placed in a nitrogen chamber.
(§5) Preparation of probenecid in FLIPR assay buffer: 1 mL of FLIPR assay buffer was added to 77 mg of probenecid to make a 250 mM solution. The solution was prepared every day to keep fresh.
(§6) 2× (8 μM) Fluo-4 Direct™ loading buffer (10 mL of each)
(§7) 0.2 mL of probenecid was added to each 10 mL of Fluo-Direct. The final measured concentration was 2.5 mM MCP-1 was diluted in FLIPR assay buffer 1:2 for 10 spots, starting at 0.5 μM (eventually to […]). RANTES was diluted in FLIPR assay buffer 1:3 for 10 spots, starting at 0.5 μM (eventually to […]). 20 μL of serially diluted compound buffer was added to each well of the DRC plate.
(§8) The standard compound was diluted in DMSO 1:3 for 11 points, starting at 1 mM.
(§9) The test compound was diluted in DMSO 1:3 for 11 spots, starting at 2 mM. 250 nL of compound solution was transferred to cell plates using Echo (Greiner #781946) c) The cell plate was taken from the incubator and 20 μL of 2× Fluo-4 Direct no wash loading buffer was gently dispensed into a 384-well cell culture plate using a pipette. The volume in the final cell plate was 40 μL […]
(§10) d) Incubation was conducted at 37° C. 5% CO2 for 50 minutes, at room temperature for 10 minutes e) The cell plate was taken from the incubator and placed in the FLIPR. The composite plate and pipette tip box were placed in the FLIPR
(§11) 5) The “Max-Min” was calculated from Read 90 to the maximum allowed. EC80 values for each cell line were calculated using FLIPR
(§12) 6) Agonist reference compound at 5 times EC80 concentration was prepared 2) 10 μL of agonist reference compound at 5 times EC80 concentration was transferred from the composite plate to the cell plate.
(§13) 3) Fluorescence signals were read.
(§14) 4) The “Max-Min” was calculated from Read 90 to the maximum allowed h) Data was analyzed by using Prism, the IC50 values of the compounds were calculated.
(In general: A change in cytosolic calcium serves as a functional read-out for many receptors and channels.)

Another data set addresses T3, CCR5 (Homo sapiens, UniProt P51681).
T3 construct: expressed in transfected cells; host or cells: HEK293, clone C13, passage P4
The experiment in a line: CCR5 FLIPR Calcium assay (intracellular calcium signaling). It counts as cell-based. Particulars: HEK293 host cells, clone C13; agonist RANTES; Fluo-4 calcium signal. Here is the method: as §1, §2, §3, §4, §5, §6, §7, §8, §9, §10, §11, §12, §13, §14

Data set [1] in a line: Comparative pharmacokinetic test in mice. It counts as in vivo, C57BL/6 male mice. Particulars: mice. Here is the method:
C57BL/6 male mice were used as test animals in the present study, and the plasma drug concentrations of the test compound WX009 and the reference compound in mice by intravenous administration or oral administration were quantified by LC/MS/MS method at different time points respectively to evaluate the pharmacokinetic characteristics of the two test drugs in mice.
A clarified solution of the test compound was injected via tail vein into C57BL/6 mice (overnight fasting, 7-10 weeks old), and the test compound was given by gavage into C57BL/6 mice (overnight fasting, 7-10 weeks old). Approximately 30 μL of blood was collected from the jugular or tail vein at 0.0833, 0.25, 0.5, 1, 2, 4, 6, 8, and 24 hours after administration, and placed in anticoagulation tubes added with EDTA-K2, then centrifuged at 4° C. for 15 minutes at 3000 g to give the plasma. Plasma drug concentration was determined by LC-MS/MS, and relevant pharmacokinetic parameters were calculated using WinNonlin™ Version 6.3 (Pharsight, Mountain View, CA) pharmacokinetic software with a non-compartmental model linear logarithmic trapezoidal method.

T2 sequence (P41597 whole entry, species assumed): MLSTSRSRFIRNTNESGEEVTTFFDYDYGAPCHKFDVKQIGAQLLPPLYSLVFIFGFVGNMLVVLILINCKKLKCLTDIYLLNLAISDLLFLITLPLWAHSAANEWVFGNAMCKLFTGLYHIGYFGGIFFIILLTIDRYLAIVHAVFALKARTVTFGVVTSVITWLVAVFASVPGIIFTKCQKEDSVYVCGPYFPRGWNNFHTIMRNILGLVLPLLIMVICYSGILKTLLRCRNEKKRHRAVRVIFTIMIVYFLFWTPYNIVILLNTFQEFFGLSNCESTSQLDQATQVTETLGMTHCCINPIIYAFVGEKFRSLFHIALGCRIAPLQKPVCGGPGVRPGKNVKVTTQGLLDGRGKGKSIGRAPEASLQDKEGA
T1 sequence (P08684 whole entry): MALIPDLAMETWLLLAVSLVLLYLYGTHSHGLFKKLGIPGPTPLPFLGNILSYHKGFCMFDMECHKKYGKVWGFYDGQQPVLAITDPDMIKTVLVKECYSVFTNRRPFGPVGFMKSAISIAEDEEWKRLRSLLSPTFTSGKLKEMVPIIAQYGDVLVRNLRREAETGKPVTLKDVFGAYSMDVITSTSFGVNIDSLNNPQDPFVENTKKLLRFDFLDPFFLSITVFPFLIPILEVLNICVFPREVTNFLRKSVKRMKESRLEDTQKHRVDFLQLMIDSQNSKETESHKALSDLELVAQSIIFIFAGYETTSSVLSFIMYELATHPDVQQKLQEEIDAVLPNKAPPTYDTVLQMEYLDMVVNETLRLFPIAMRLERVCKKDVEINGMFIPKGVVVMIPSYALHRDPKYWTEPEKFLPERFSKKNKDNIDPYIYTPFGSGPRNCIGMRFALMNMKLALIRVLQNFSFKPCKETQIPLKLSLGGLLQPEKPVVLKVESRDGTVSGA
T3 sequence (P51681 whole entry, species assumed): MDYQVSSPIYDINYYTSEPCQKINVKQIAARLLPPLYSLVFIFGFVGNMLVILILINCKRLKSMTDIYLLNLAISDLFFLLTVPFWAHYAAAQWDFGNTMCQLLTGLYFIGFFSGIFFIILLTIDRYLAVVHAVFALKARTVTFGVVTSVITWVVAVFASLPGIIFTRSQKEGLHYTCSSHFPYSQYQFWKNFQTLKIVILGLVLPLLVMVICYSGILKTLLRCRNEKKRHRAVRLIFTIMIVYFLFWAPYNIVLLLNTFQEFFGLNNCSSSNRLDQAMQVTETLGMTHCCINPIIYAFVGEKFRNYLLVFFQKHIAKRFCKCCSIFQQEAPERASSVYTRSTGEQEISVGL

On to “Cenicriviroc [(Cenicriviroc), reference compound]”, for which the “Inhibition of CYP3A4 (in words)” value was “strong inhibitory effect” on CYP3A4 (listed as reference compound) and “strong inhibition” on CYP3A4 (listed as reference compounds). For the molecule `CCCCOCCOc1ccc(-c2ccc3c(c2)/C=C(/C(=O)Nc2ccc([S@@+]([O-])Cc4cncn4CCC)cc2)CCCN3CC2CC2)cc1` [Reference A, reference compound], the “Inhibition of CYP3A4 (in words)” value at CYP3A4 was “strong inhibition”. Broadly, the pIC50 is −log10 of the IC50, conventionally taken in molar units. As for `CCCCOCCOc1ccc(-c2ccc3c(c2)C=C(C(=O)Nc2ccc([S+]([O-])Cc4cnccc4CC)cc2)CCCN3CC2CCCO2)cc1` (single isomer, unassigned) [WX004], the pIC50 on CCR2 is 7.71; on CCR5, 8.19. On to `CCCCOCCOc1ccc(-c2ccc3c(c2)/C=C(/C(=O)Nc2ccc([S@+]([O-])Cc4cnc(C)cc4CC)cc2)CCCN3C[C@H]2CCCO2)cc1` (single isomer, unassigned) [WX016], for which the pIC50 at CCR2 is 8.76; on CCR5 it was 7.78. Turning to `CCCCOCCOc1ccc(-c2ccc3c(c2)/C=C(/C(=O)Nc2ccc([S+]([O-])Cc4cnccc4CC)cc2)CCCN3CC2CCOCC2)cc1` (stereo not shown) [WX001], the values for the pIC50 on CCR2 and at CCR5 were 7.75 and 8.36, respectively. For `CCCCOCCOc1ccc(-c2ccc3c(c2)C=C(C(=O)Nc2ccc([S+]([O-])Cc4cnc(C)cc4CC)cc2)CCCN3CC2CCCO2)cc1` (single isomer, unassigned) [WX014], the pIC50 was 8.86 on CCR2 and 7.92 on CCR5.

`CCCCOCCOc1ccc(-c2ccc3c(c2)C=C(C(=O)Nc2ccc([S+]([O-])Cc4c(CC)ccnc4C)cc2)CCCN3CC2CCCO2)cc1` (single isomer, unassigned) [WX008]: the pIC50 at CCR2 is 7.82. For `CCCCOCCOc1ccc(-c2ccc3c(c2)C=C(C(=O)Nc2ccc([S+]([O-])Cc4c(C)ccnc4C)cc2)CCCN3CC2CCOCC2)cc1` (single isomer, unassigned) [WX019], the pIC50 on CCR5 is 8.41. In general, half-life refers to the time in which the quantity being followed falls by half. What is called clearance is the volume of plasma or blood freed of the substance per unit of time. Usually bioavailability stands for dose-corrected exposure relative to a reference, in per cent. A low value points to little systemic uptake. Turning to `CCCCOCCOc1ccc(-c2ccc3c(c2)/C=C(/C(=O)Nc2ccc([S@@+]([O-])Cc4cncn4CCC)cc2)CCCN3CC(C)C)cc1` [(Cenicriviroc), Cenicriviroc, reference compound], in data set [1] (male, C57BL/6, mouse, plasma, intravenous injection 2 mg/kg), the half-life is 3.55 h. Besides, the clearance in data set [1] (male, C57BL/6, mouse, plasma, intravenous injection 2 mg/kg, read-out: Plasma clearance rate) stood at 2.28 mL/min/kg. Moreover, the bioavailability in data set [1] (male, C57BL/6, mouse, plasma, oral 10 mg/kg) came to 6.02%. Moreover, in data set [1] (oral 10 mg/kg), the “Area under the time-concentration curve (0-inf)” value was 6.401 µM·h, the Peak concentration turned out to be 1533 nM and the Peak time is recorded as 1.0 h.

`CCCCOCCOc1ccc(-c2ccc3c(c2)/C=C(/C(=O)Nc2ccc([S@+]([O-])Cc4c(CC)ccnc4CC)cc2)CCCN3CC2CCOCC2)cc1` [WX025]: the pIC50 on CCR2 is 8.65; at CCR5, 8.37. Consider `CCCCOCCOc1ccc(-c2ccc3c(c2)/C=C(/C(=O)Nc2ccc([S+]([O-])Cc4c(C)ccnc4C)cc2)CCCN3CC2CCCO2)cc1` (single isomer, unassigned) [WX021], for which, on CCR5, the pIC50 was 8.23. `CCCCOCCOc1ccc(-c2ccc3c(c2)C=C(C(=O)Nc2ccc([S+]([O-])Cc4cnccc4CC)cc2)CCCN3CC2COCCO2)cc1` (single isomer, unassigned) [WX003]: the negative logarithm of the IC50 (pIC50) was 7.78 on CCR2 and 7.93 at CCR5. As for `CCCCOCCOc1ccc(-c2ccc3c(c2)/C=C(/C(=O)Nc2ccc([S@+]([O-])Cc4c(CC)ccnc4C)cc2)CCCN3C[C@H]2CCCO2)cc1` (single isomer, unassigned) [WX010], the pIC50 on CCR2 was 7.86.

Take `CCCCOCCOc1ccc(-c2ccc3c(c2)/C=C(/C(=O)Nc2ccc([S+]([O-])Cc4cnc(C)cc4C)cc2)CCCN3CC2CCOCC2)cc1` (stereo not shown) [WX022]: the pIC50 at CCR5 is 7.87. In the case of `CCCCOCCOc1ccc(-c2ccc3c(c2)C=C(C(=O)Nc2ccc([S+]([O-])Cc4cnc(C)cc4CC)cc2)CCCN3CC2CCOCC2)cc1` (single isomer, unassigned) [WX013], the pIC50 at CCR2 was 7.70. Regarding `CCCCOCCOc1ccc(-c2ccc3c(c2)C=C(C(=O)Nc2ccc([S+]([O-])Cc4cnccc4CC)cc2)CCCN3CC2CCCO2)cc1` (single isomer, unassigned) [WX005], the pIC50 at CCR2 is 7.68; on CCR5, 8.05. Turning to `CCCCOCCOc1ccc(-c2ccc3c(c2)C=C(C(=O)Nc2ccc([S+]([O-])Cc4c(CC)ccnc4C)cc2)CCCN3CC2CCOCC2)cc1` (single isomer, unassigned) [WX006], the negative-log IC50 (pIC50) on CCR2 was 7.80.

As for `CCCCOCCOc1ccc(-c2ccc3c(c2)/C=C(/C(=O)Nc2ccc([S+]([O-])Cc4cnc(C)cc4C)cc2)CCCN3CC2CCCO2)cc1` (single isomer, unassigned) [WX024], the pIC50 at CCR5 was 7.95. In the case of `CCCCOCCOc1ccc(-c2ccc3c(c2)/C=C(/C(=O)Nc2ccc([S@+]([O-])Cc4cnc(C)cc4CC)cc2)CCCN3C[C@H]2CCCO2)cc1` (single isomer, unassigned) [WX017], at CCR2, the pIC50 was 7.47. With `CCCCOCCOc1ccc(-c2ccc3c(c2)/C=C(/C(=O)Nc2ccc([S+]([O-])Cc4cnc(C)cc4C)cc2)CCCN3CC2CCCO2)cc1` (single isomer, unassigned) [WX023], the pIC50 on CCR5 was 8.01.

In the case of `CCCCOCCOc1ccc(-c2ccc3c(c2)/C=C(/C(=O)Nc2ccc([S@+]([O-])Cc4c(CC)ccnc4C)cc2)CCCN3C[C@H]2CCCO2)cc1` (single isomer, unassigned) [WX011], the results for the pIC50 on CCR2 and on CCR5 were 8.94 and 8.42, respectively. For the molecule `CCCCOCCOc1ccc(-c2ccc3c(c2)C=C(C(=O)Nc2ccc([S+]([O-])Cc4c(C)ccnc4C)cc2)CCCN3CC2CCOCC2)cc1` (single isomer, unassigned) [WX018], on CCR5, the pIC50 is 7.82. Consider `CCCCOCCOc1ccc(-c2ccc3c(c2)C=C(C(=O)Nc2ccc([S+]([O-])Cc4cnc(C)cc4CC)cc2)CCCN3CC2CCCO2)cc1` (single isomer, unassigned) [WX015], for which the pIC50 at CCR2 was 7.67. As for `CCCCOCCOc1ccc(-c2ccc3c(c2)C=C(C(=O)Nc2ccc([S+]([O-])Cc4cnccc4CC)cc2)CCCN3CC2COCCO2)cc1` (single isomer, unassigned) [WX002], the values for the pIC50 at CCR2 and on CCR5 were 7.71 and 8.13, respectively.

With `CCCCOCCOc1ccc(-c2ccc3c(c2)/C=C(/C(=O)Nc2ccc([S+]([O-])Cc4c(C)ccnc4C)cc2)CCCN3CC2CCCO2)cc1` (single isomer, unassigned) [WX020], the pIC50 at CCR5 is 8.25.
